# Like-named read-outs stand apart in the source and are kept apart here.
# Columns and labels:
# [1] = test system: bcl-2 G4 DNA; assay: FRET melting assay; format: binding
# Experimental: The fluorescent labeled oligonucleotide, bcl-2 G-quadruplex DNA (5′-FAM-[…]-TAMRA-3′, FAM: carboxyfluorescein, TAMRA: 6-carboxy tetramethylrhodamine) used as the FRET probe was diluted in TrisHCl buffer and then annealed by being heated to 90 °C for 5 min, followed by slowly cooling to room temperature. Ds26 duplex DNA ([…]) was competitive binders to evaluate the selective binding ability of 1 with bcl-2 G4 DNA. Fluorescence melting curves were determined with a Bio-RadiQ5 realtime PCR detection system (Bio-Rad, Berkeley, CA, USA), by using a total reaction volume of […], with labeled oligonucleotide (1 μM) and different concentrations of complex in Tris-HCl buffer. A constant temperature was maintained for 30 s prior to each reading to ensure a stable value. Final analysis of the data was carried out by using Origin7.5 (Origin Lab, Northampton, MA, USA).
# [2] = test system: bcl-2 G-quadruplex DNA (bcl-2 G4 DNA) (DNA, G4) CGGGCGCGGGAGGAAGGGGGCGGGAGC; assay: ethidium bromide displacement fluorescence; conditions: K+ (KCl, concentration not given); Tris-HCl KCl pH 7.2; EB 16 μM, DNA 2 μM; I/I0 0.83 at 20.89 μM compound
# [3] = test system: A549 cells; assay: Flow cytometric analysis of cell cycle arrest (PI staining); format: cell-based, human; conditions: 20 μM, 24 h, versus control (55.75%)
# Experimental: Cells were seeded in six-well tissue culture plates (1 × 10^5 cells per well), and the cell cycle arrest was analyzed by flow cytometry as previously described. […] The fixed cells were washed with PBS and stained with propidium iodide (PI) for 15 min in the dark, then the cell cycle arrest was analyzed with an Epics XL-MCL flow cytometer (Beckman Coulter, Miami, FL, USA).
# [4] = test system: 5'-FAM-bcl-2-TAMRA-3' (DNA, G4) CGGGCGCGGGAGGAAGGGGGCGGGAGC; assay: FRET melting; conditions: Tris-HCl buffer; 6.0 μM compound (2.4 °C at 3.0 μM); 1 μM DNA (0.2 μM in Figure 4 legend)
# [5] = test system: bcl-2 G-quadruplex DNA; assay: Electronic absorption titration with bcl-2 G-quadruplex DNA; format: binding
# Experimental: (§1) All reagents were purchased from commercial suppliers and used without further purification. Solvents were dried and purified by conventional methods prior to use. Distilled water was used in all experiments. Bcl-2 G-quadruplex DNA (5′-[…]-3′) and 5′-FAM-bcl-2-TAMRA-3′ were purchased from Sangon Biotech Co., Ltd. (Shanghai, China) Bcl-2 G-quadruplex DNA formed a G-quadruplex conformation as literature by renaturation for 24 h at 4 °C, after denaturation for 5 min at 90 °C [29]. All aqueous solutions were prepared with doubly distilled water. The Tris-HCl buffer consisting of Tris and KCl, and the pH value was adjusted to 7.2 by HCl solution, which was applied to UV titration, Fluorescence emission titrations.
# Electronic absorption spectra were recorded on a Shimadzu UV-2550 spectrophotometer using 1 cm path length quartz cuvettes (3 mL). The absorption titration of the target complex in Tris-HCl buffer was performed by using a fixed complex concentration to which increments of the DNA stock solution were added. The concentration of the complex solution was 20 μM and bcl-2 G4 DNA was added by degrees. Complex-DNA solutions were allowed to incubate for 3 min before the absorption spectra were recorded.
# [6] = test system: bcl-2 G-quadruplex DNA (bcl-2 G4 DNA) (DNA, G4) CGGGCGCGGGAGGAAGGGGGCGGGAGC; assay: UV-vis absorption titration; conditions: K+ (KCl, concentration not given); Tris-HCl pH 7.2; fixed 20 μM compound (60 μM in Figure 3 legend); intrinsic binding constant
# [7] = test system: human hepatocarcinoma SMMC7721 cells; assay: MTT assay, growth inhibition of SMMC7721 cells; format: cell-based
# Experimental: (§2) Human cancer cell lines, human lung adenocarcinoma A549 cells, human hepatocarcinoma SMMC7721 cells, human colorectal carcinoma SW620 cells and HaCaT cells were purchased from American Type Culture Collection (ATCC, Manassas, VA, USA). All cell lines were maintained in Dulbecco’s Modified Eagle Medium (DMEM) media supplemented with fetal bovine serum (10%), penicillin (100 units/mL), and streptomycin (50 units/mL) at 37 °C in a CO2 incubator (95% relative humidity, 5% CO2).
# (§3) Cell viability was confirmed by measuring the ability of cells to transform 3-(4,5-dimethylthia-zol-2-yl)-2,5-diphenyltetrazolium bromide (MTT) to a purple formazan dye. Cells were seeded in 96-well tissue culture plates (3 × 10^3 cells per well) for 24 h. The cells were then incubated with the tested compounds at different concentrations for 72 h. After incubation, 20 µL per well of MTT solution (5 mg/mL in phosphate buffered saline, PBS) was added, followed by incubation for a further 5 h. The medium was aspirated and replaced with 150 µL/well of DMSO to dissolve the formazan salt formed. The colour intensity, which reflects the cell growth condition, was measured at 570 nm using a microplate spectrophotometer (SpectroAmaxTM250, BioTek Instruments, Inc., Winooski, VT, USA).
# [8] = test system: human colorectal carcinoma SW620 cells; assay: MTT assay, growth inhibition of SW620 cells; format: cell-based
# Experimental: as §2, §3
# [9] = test system: bcl-2 G4 DNA; assay: Fluorescence quenching of EB + bcl-2 G4 DNA system; format: binding; conditions: [1] = 20.89 μM, [EB] = 16 μM, [DNA] = 2 μM, excitation 350 nm, Tris-HCl KCl buffer pH 7.2
# Experimental: as §1
# Fluorescence spectroscopy measurements were performed on a RF-5301 fluorescence spectrophotometer using a 1 cm path length quartz cell. Fluorescence quenching of the EB + bcl-2 G4 DNA system can be used for a compound having an affinity to DNA in spite of its binding mode, and only measures the ability of the compound to affect the EB fluorescence intensities in the EB + bcl-2 G4 DNA system. The titration processes were repeated until there was no apparent change in the spectra for at least three titrations, indicating the achievement of the binding saturation.
# [10] = test system: HaCaT cells; assay: MTT assay, normal HaCaT cells; format: cell-based, human; conditions: 72 h; for IC50: normal cells
# Experimental: as §2, §3
# [11] = test system: human lung adenocarcinoma A549 cells; assay: MTT assay, growth inhibition of A549 cells; format: cell-based
# Experimental: as §2, §3
"IC50 ([7]; Homo sapiens, SMMC-7721, 72 h) [µM]","IC50 ([8]; Homo sapiens, SW-620, 72 h) [µM]","IC50 ([11]; Homo sapiens, A549, 72 h) [µM]",SMILES,"IC50 ([10]; Homo sapiens, HaCaT) [µM]",also measured
17.5 ± 1.84,26.5 ± 0.59,15 ± 1.01,O=[N+]([O-])c1cccc(-c2nc3c4cccnc4c4ncccc4c3[nH]2)c1 [Compound 1],27.3 ± 1.49,"ΔTm of bcl-2 G4 DNA ([1]; 3.0 μM compound): about 2.4 °C; ΔTm of bcl-2 G4 DNA ([1]; 6.0 μM compound): about 11 °C; binding [2]: weak; ratio of G1-phase higher than that of the control [3]: about 12%; ΔTm [4]: ~ 11 °C; hyperchromism at the IL absorption band ([5]; Tris-HCl buffer pH 7.2, about 273 nm, on addition of bcl-2 G-quadruplex DNA): about 14.1%; bathochromic shift Δλ at the IL absorption band ([5]; Tris-HCl buffer pH 7.2, on addition of bcl-2 G-quadruplex DNA): 2.1 nm; Kb [6]: ~ 8.7 × 10^7 M^-1; relative fluorescence intensity (I/I0) of EB-DNA [9]: about 0.83; toxicity in normal cells [10]: low toxicity in normal cells"
12.9 ± 0.51,27.2 ± 0.53,13.8 ± 0.53,FC(F)(F)c1cccc(-c2nc3c4cccnc4c4ncccc4c3[nH]2)c1 [Compound 2],17.5 ± 0.58,
12.6 ± 0.35,16 ± 0.29,14.3 ± 0.21,Clc1cccc(-c2nc3c4cccnc4c4ncccc4c3[nH]2)c1 [Compound 3],13.4 ± 0.56,
24.2 ± 2.28,16.5 ± 0.28,3 ± 0.14,Oc1cccc(-c2nc3c4cccnc4c4ncccc4c3[nH]2)c1 [Compound 4],13.9 ± 0.64,
,,,"N.N.[Cl][Pt][Cl] [cis-platin, reference compound]",,"IC50 ([7]; 72 h, read-out: IC50 (μM) SMMC-7721): 11.7 ± 1.45 µM; IC50 ([8]; 72 h): 6.29 ± 0.17 µM; IC50 [10]: 18.5 ± 1.64 µM; IC50 ([11]; 72 h): 32 ± 4.66 µM"

# Source: PMC6154642 (Molecules : A Journal of Synthetic Chemistry and Natural …, 2017)
